Values after ≈ are worked out from the molar mass of the structure shown. Like-named read-outs stand apart in the source and are kept apart here. Residues, ends and D or L forms follow the SMILES beside them.
Legend:
E. coli [1] = experiment: MBC and MIC susceptibility test; format: cell-based; settings: Table III
P. aeruginosa = experiment: MBC and MIC susceptibility test; format: cell-based; settings: Table III, P. aeuriginosa (−)
S. aureus = experiment: MBC and MIC susceptibility test; format: cell-based; settings: Table III, S. aureus (+)
B-16 myeloma cells = experiment: B-16 cell viability, trypan blue exclusion; format: cell-based; settings: for % Cell Viability: 100 μM peptide, one hour
Method: (§1) B-16 myeloma cells and normal 3T3 […] fibroblasts were either permitted to attach to the test plate, or treated with trypsin to free the cells from the plastic dish prior to treatment. Cells were then treated with 100 μM lytic peptide for one hour as described above, and cell viability was then determined by trypan blue exclusion.

[2] = 3T3 fibroblast viability, trypan blue exclusion; format: cell-based; settings: human, 100 μM peptide, one hour, read-out: % Cell Viability
Method: as §1

[3] = system: Human mononuclear leukocytes; experiment: 3H-thymidine uptake in WBC (proliferation); format: cell-based
Method: Human mononuclear leukocytes were isolated from whole blood in the following manner. Blood was collected in vacutainer tubes containing EDTA, and was then diluted with an equal valume of calcium and magnesium-free PBS and layered over Histopaque resin (GIBCO). The tubes were centrifuged for 30 minutes at 25° C. and 450× g. The plasma and platelets above the banded layer of cells in the resulting gradient were removed and discarded. The banded white blood cells were removed to fresh test tubes, washed 3 times with PBS, and resuspended in RPMI medium containing 10% fetal bovine serum (FBS), mercaptoethanol, and penicillin and streptomycin as antibiotics. The cells were then counted and resuspended to a final concentration of 3×10^6 cells/ml.
To each well of a 96 well flat-bottomed microtiter plate was aded 100 μl of cells (3×10^5 cells). Treatment groups were set in quadruplicate samples. The appropriate concentration of test peptide and/or the mitogen hytohemaglutinate (PHA), was added in a total volume of 100 μl of medium to the test wells. The plates were then incubated at 37° C. and 5% CO2 for a duration of 72 hours. At the end of the incubation period, 1 μCi of 3H-thymidine in 1 μl TRIS-HCI, PH8 was added to each well, and the plates incubated an additional 18 hours.
Cellular DNA was harvested onto glass fiber filters using a semi-automatic cell harvester. The glass filters were then placed into vials containing scintillation fluid, and the samples were counted in a scintillation counter. The uptake of 3H-thymidine is an indiator of cell proliferation, thus the higher the number of counts in the sample, the greater the proliferative activity of the cells. The results in Table XI indicate that low dose of the synthetic peptides of this invention stimulate cell growth.

EL-4 lymphoma cells = experiment: EL-4 cell killing, trypan blue exclusion; settings: one hour, 37° C.
E. coli [4] = experiment: Synergy of lytic peptide with antibiotics
S. auerus = experiment: Synergy of lytic peptide with antibiotics
[5] = Role of cytoskeletal structure in susceptibility to lysis, FDD cell viability; settings: donkey, primary fetal donkey dermal cells (FDD), % Viability of Treated DD Cells, 100 μM peptide 15 minutes
[6] = Manitou-1 0.01 μM + Streptomycin 0.5 μM
[7] = Manitou-1 0.01 μM + Streptomycin 5.0 μM
[8] = Manitou-1 0.01 μM + Tetracycline 0.5 μM
[9] = Manitou-1 0.01 μM + Tetracycline 5.0 μM
[10] = Manitou-1 0.01 μM, no antibiotic
[11] = Manitou-1 0.10 μM + Streptomycin 0.5 μM
[12] = Manitou-1 0.10 μM + Streptomycin 5.0 μM
[13] = Manitou-1 0.10 μM + Tetracycline 0.5 μM
[14] = Manitou-1 0.10 μM + Tetracycline 5.0 μM
[15] = Manitou-1 0.10 μM, no antibiotic
[16] = Manitou-1 1.0 μM + Streptomycin 0.5 μM
[17] = Manitou-1 1.0 μM + Streptomycin 5.0 μM
[18] = Manitou-1 1.0 μM + Tetracycline 0.5 μM
[19] = Manitou-1 1.0 μM + Tetracycline 5.0 μM
[20] = Manitou-1 1.0 μM, no antibiotic

CSCC[C@H](NC(=O)[C@H](CCCNC(=N)N)NC(=O)[C@H](CCCCN)NC(=O)[C@@H](N)CCSC)C(=O)N[C@H](C(=O)N[C@@H](CO)C(=O)N[C@@H](Cc1c[nH]c2ccccc12)C(=O)N[C@@H](CO)C(=O)N[C@@H](Cc1ccccc1)C(=O)N[C@@H](CCCCN)C(=O)N[C@@H](CCCCN)C(=O)N[C@@H](CC(C)C)C(=O)N[C@@H](CCCCN)C(=O)N[C@H](C(=O)N[C@@H](CCSC)C(=O)N[C@@H](CCCCN)C(=O)N[C@@H](CCCCN)C(=O)N[C@@H](CC(C)C)C(=O)N[C@@H](CC(C)C)C(=O)N[C@@H](CC(C)C)C(=O)N[C@@H](CC(C)C)C(=O)N[C@@H](CC(C)C)C(=O)N[C@@H](CC(C)C)C(=O)N[C@@H](CS)C(=O)N[C@H](C(=O)N[C@@H](Cc1ccccc1)C(=O)N[C@@H](CC(C)C)C(=O)N[C@H](C(=O)N[C@@H](CCCCN)C(=O)N[C@@H](CO)C(N)=O)C(C)C)C(C)C)[C@@H](C)O)C(C)C [Manitou-1] (H-MKRMVSWSFKKLKTMKKLLLLLLCVFLVKS-NH2) gave an MBC (E. coli [1]) of 8 µM (≈ 28.9 µg/mL), an MBC (P. aeruginosa) of 16 µM (≈ 57.8 µg/mL) and an MBC (S. aureus) of 32 µM (≈ 116 µg/mL). For the same compound, the “% Cell Viability” value (B-16 myeloma cells; B-16 Monolayer) was 19%, the “% Cell Viability” value (B-16 myeloma cells; B-16 Suspension (trypsinized)) was 0% and the “selective killing of cancer cells in monolayer culture (in words)” value (B-16 myeloma cells; B-16 versus 3T3 attached in monolayer) was “more effective than LSB-37 in selectively killing cancer cells”. The viability at 1 h, 100 μM ([2]; normal 3T3 human fibroblasts, 3T3 Suspension (trypsinized)) was 5%, the viability at 1 h, 100 μM ([2]; 3T3 Monolayer) was 85% and the “3H-Thymidine Uptake in WBC, % of Control” value ([3]; peptide 10 μM, PHA 0 mg) was 239%. The “3H-Thymidine Uptake in WBC, % of Control” value ([3]; peptide 10 μM, PHA 0.5 mg) was 191%, the “3H-Thymidine Uptake in WBC, % of Control” value ([3]; peptide 10 μM, PHA 5.0 mg) was 125% and the “3H-Thymidine Uptake in WBC, % of Control” value ([3]; peptide 25 μM, PHA 0 mg) was 325%. For the same compound, the “3H-Thymidine Uptake in WBC, % of Control” value ([3]; peptide 25 μM, PHA 0.5 mg) was 153%, the “3H-Thymidine Uptake in WBC, % of Control” value ([3]; peptide 25 μM, PHA 5.0 mg) was 143% and the “3H-Thymidine Uptake in WBC, % of Control” value ([3]; peptide 50 μM, PHA 0 mg) was 62%. For the same compound, the “3H-Thymidine Uptake in WBC, % of Control” value ([3]; peptide 50 μM, PHA 0.5 mg) was 61%, the “3H-Thymidine Uptake in WBC, % of Control” value ([3]; peptide 50 μM, PHA 5.0 mg) was 63% and the “3H-Thymidine Uptake in WBC, % of Control” value ([3]; peptide 100 μM, PHA 0 mg) was 39%. For the same compound, the “3H-Thymidine Uptake in WBC, % of Control” value ([3]; peptide 100 μM, PHA 0.5 mg) was 8%, the “3H-Thymidine Uptake in WBC, % of Control” value ([3]; peptide 100 μM, PHA 5.0 mg) was 0% and the “% EL-4 Cells Killed” value (EL-4 lymphoma cells; 10 μM peptide) was 5%. For the same compound, the “% EL-4 Cells Killed” value (EL-4 lymphoma cells; 25 μM peptide) was 28%, the “% EL-4 Cells Killed” value (EL-4 lymphoma cells; 50 μM peptide) was 78% and the “% EL-4 Cells Killed” value (EL-4 lymphoma cells; 100 μM peptide) was 100%. For the same compound, the “% Cell Death In E. coli” value (E. coli [4]; [6]) was 99.9%, the “% Cell Death In E. coli” value (E. coli [4]; [7]) was 58% and the “% Cell Death In E. coli” value (E. coli [4]; [8]) was 68%. The “% Cell Death In E. coli” value (E. coli [4]; [9]) was 88%, the “% Cell Death In E. coli” value (E. coli [4]; [10]) was 0% and the “% Cell Death In E. coli” value (E. coli [4]; [11]) was 68%. For the same compound, the “% Cell Death In E. coli” value (E. coli [4]; [12]) was 99.9%, the “% Cell Death In E. coli” value (E. coli [4]; [13]) was 0% and the “% Cell Death In E. coli” value (E. coli [4]; [14]) was 58%. The “% Cell Death In E. coli” value (E. coli [4]; [15]) was 0%, the “% Cell Death In E. coli” value (E. coli [4]; [16]) was 0% and the “% Cell Death In E. coli” value (E. coli [4]; [17]) was 99.9%. The “% Cell Death In E. coli” value (E. coli [4]; [18]) was 0%, the “% Cell Death In E. coli” value (E. coli [4]; [19]) was 47% and the “% Cell Death In E. coli” value (E. coli [4]; [20]) was 0%. The “interaction with streptomycin in E. Coli (in words)” value (E. coli [4]; Manitou-1 with streptomycin) was “synergistic action”, the “% Cell Death In S. auerus” value (S. auerus; [6]) was 0% and the “% Cell Death In S. auerus” value (S. auerus; [7]) was 87%. For the same compound, the “% Cell Death In S. auerus” value (S. auerus; [8]) was 0%, the “% Cell Death In S. auerus” value (S. auerus; [9]) was 35% and the “% Cell Death In S. auerus” value (S. auerus; [10]) was 0%. The “% Cell Death In S. auerus” value (S. auerus; [11]) was 0%, the “% Cell Death In S. auerus” value (S. auerus; [12]) was 95% and the “% Cell Death In S. auerus” value (S. auerus; [13]) was 0%. The “% Cell Death In S. auerus” value (S. auerus; [14]) was 35%, the “% Cell Death In S. auerus” value (S. auerus; [15]) was 0% and the “% Cell Death In S. auerus” value (S. auerus; [16]) was 0%. For the same compound, the “% Cell Death In S. auerus” value (S. auerus; [17]) was 86%, the “% Cell Death In S. auerus” value (S. auerus; [18]) was 0% and the “% Cell Death In S. auerus” value (S. auerus; [19]) was 35%. The “% Cell Death In S. auerus” value (S. auerus; [20]) was 0%, the viability at 15 minutes, 100 μM ([5]; Cold-treated (4° C.)) was 8% and the viability at 15 minutes, 100 μM ([5]; Warm-treated (37° C.)) was 78%. The viability at 15 minutes, 100 μM ([5]; with colchicine 0.1 μg/ml (cytoskeletal inhibitor), Colchicine-treated (0.1 μg/ml)) was 30% and the viability at 15 minutes, 100 μM ([5]; with cytochalasin D 5 μg/ml (cytoskeletal inhibitor), Cytochalasin D-treated (5 μg/ml)) was 23%.
